Structures can show the parent of a compound that is named as a salt. Bridge positions count the residues as written; N and C are the ends. Square brackets hold non-standard residues; d marks the D form. Peptide text beside a SMILES is read from it. * marks the point of attachment. Ileψ(thiazoline)Cys = CC[C@H](C)[C@H](N)C1=N[C@H](C(=O)*)CS1; dOrn = NCCC[C@@H](N)C(=O)O

In the first experiment the target is SARS-CoV-2 Mac1 (Severe acute respiratory syndrome coronavirus 2, UniProt P0DTD1). The experiment in a line: biochemical. As to conditions: 100 µM; inhibitor.
What is called %inhibition is how much of the control response was suppressed. As for `Cc1c(-c2ccc(O)cc2)n(Cc2ccc(OCCN3CCCCCC3)cc2)c2ccc(O)cc12` [Bazedoxifene Acetate], the “%inhibition” value is given as 3.518%. `Cc1c(-c2ccc(O)cc2)n(Cc2ccc(OCCN3CCCCCC3)cc2)c2ccc(O)cc12` [Bazedoxifene HCl]: the “%inhibition” value was 0%. Still for that read-out and setting: in the case of `COc1nc2ccc(Br)cc2cc1[C@@H](c1ccccc1)[C@@](O)(CCN(C)C)c1cccc2ccccc12` [Bedaquiline fumarate] it was 0%. Still for that read-out and setting: in the case of `COc1nc2ccc(Br)cc2cc1[C@@H](c1ccccc1)[C@@](O)(CCN(C)C)c1cccc2ccccc12` [Bedaquiline] it was 4.292%. On the same count and under the same terms, in the case of `O=C(O)c1ccccc1` [Benzoic Acid] it was 1.824%. `CC1(C)S[C@@H]2[C@H](NC(=O)Cc3ccccc3)C(=O)N2[C@H]1C(=O)O` [Benzylpenicillin potassium]: the “%inhibition” value is on record as 8.229%. On the same count and under the same terms, in the case of `COc1ccc2cc3[n+](cc2c1OC)CCc1cc2c(cc1-3)OCO2` [Berberine Sulfate] it was 0%; in that of `COc1ccc2cc3[n+](cc2c1OC)CCc1cc2c(cc1-3)OCO2` [Berberine chloride], 8.063%.

In the case of `C[C@H]1C[C@H]2[C@@H]3CCC4=CC(=O)C=C[C@]4(C)[C@@]3(F)[C@@H](O)C[C@]2(C)[C@@]1(O)C(=O)CO` [Betamethasone], the “%inhibition” value stood at 1.437%.

In the case of `CC(C)NCC(O)COc1ccc(CCOCC2CC2)cc1` (stereo not drawn) [Betaxolol HCl], the “%inhibition” value was found to be 10.86%. Turning to `CC(C)NCC(O)COc1ccc(CCOCC2CC2)cc1` (stereo not drawn) [Betaxolol], the “%inhibition” value came out at 0%.

Consider `COc1ccc(NC(=O)c2ccc(C(=N)N(C)C)cc2)c(C(=O)Nc2ccc(Cl)cn2)c1` [Betrixaban maleate], for which the “%inhibition” value came to 3.06%. Same read-out and setting: in the case of `COc1ccc(NC(=O)c2ccc(C(=N)N(C)C)cc2)c(C(=O)Nc2ccc(Cl)cn2)c1` [Betrixaban] it was 0%; in that of `CC(C)(C)NC(=O)N[C@H](C(=O)N1C[C@H]2[C@@H]([C@H]1C(=O)NC(CC1CCC1)C(=O)C(N)=O)C2(C)C)C(C)(C)C` (stereo partly drawn) [Boceprevir], 2.103%.

The experiment is the same for the next values; noted with them: read-out: %inhibition.
Broadly, the inhibition is the drop in the measured response relative to a control, in per cent. Turning to `CC[C@H](C)[C@H](N)C1=N[C@H](C(=O)N[C@@H](CC(C)C)C(=O)N[C@H](CCC(=O)O)C(=O)N[C@H](C(=O)N[C@H]2CCCCNC(=O)[C@H](CC(N)=O)NC(=O)[C@@H](CC(=O)O)NC(=O)[C@H](Cc3cnc[nH]3)NC(=O)[C@@H](Cc3ccccc3)NC(=O)[C@H]([C@@H](C)CC)NC(=O)[C@@H](CCCN)NC2=O)[C@@H](C)CC)CS1` [Bacitracin] ({Ileψ(thiazoline)Cys}-L[dE]IK[dOrn]I[dF]H[dD]N; lactam 4-C), the inhibition at 100 µM was 0%.

In the case of `Cc1ccc(NC(=O)c2ccc(CN3CC[C@H](N(C)C)C3)c(C(F)(F)F)c2)cc1Nc1nccc(-c2cncnc2)n1` [Bafetinib (INNO-406)], the inhibition at 100 µM was determined as 0%.

Regarding `CNC1CCCN(c2c(F)cc3c(=O)c(C(=O)O)cn(C4CC4)c3c2OC)C1` (stereo not drawn) [Balofloxacin], the inhibition at 100 µM is 0%. Still for that read-out and setting: in the case of `O=C(O)CCNC(=O)c1ccc(/N=N/c2ccc(O)c(C(=O)O)c2)cc1` [Balsalazide disodium] it was 0%; in that of `COC(=O)[C@]12CCC(C)(C)C[C@H]1[C@H]1C(=O)C=C3[C@@]4(C)C=C(C#N)C(=O)C(C)(C)[C@@H]4CC[C@@]3(C)[C@]1(C)CC2` [Bardoxolone Methyl], 16.4%; in that of `CCS(=O)(=O)N1CC(CC#N)(n2cc(-c3ncnc4[nH]ccc34)cn2)C1` [Baricitinib (LY3009104, INCB028050)], 28.1%.

On to `CNC(=O)[C@H](Cc1ccccc1)NC(=O)[C@H](CC(C)C)[C@H](CSc1cccs1)C(=O)NO` [Batimastat (BB-94)], for which the inhibition at 100 µM amounted to 0%.

For `CCC(=O)OCC(=O)[C@@]1(OC(=O)CC)[C@@H](C)C[C@H]2[C@@H]3CCC4=CC(=O)C=C[C@]4(C)[C@@]3(Cl)[C@@H](O)C[C@@]21C` [Beclomethasone dipropionate], the inhibition at 100 µM was found to be 0%.

With `O=C(/C=C/c1cccc(S(=O)(=O)Nc2ccccc2)c1)NO` [Belinostat (PXD101)], the inhibition at 100 µM was 20%. Same read-out and setting: in the case of `CCC1(C)CC(=O)NC(=O)C1` [Bemegride] it was 0%. Still for that read-out and setting: in the case of `CCN(CC)CCOC(=O)C(O)(c1ccccc1)c1ccccc1` [Benactyzine hydrochloride] it was 0%; in that of `CCOC(=O)[C@H](CCc1ccccc1)N[C@H]1CCc2ccccc2N(CC(=O)O)C1=O` [Benazepril HCl], 0%; in that of `O=C(O)COc1nn(Cc2ccccc2)c2ccccc12` [Bendazac], 3.85%. Same read-out and setting: as for `NS(=O)(=O)c1cc2c(cc1C(F)(F)F)NC(Cc1ccccc1)NS2(=O)=O` (stereo not drawn) [Bendroflumethiazide], the figure is 0%; as for `CC(COc1ccccc1Cc1ccccc1)N1CCCCC1` (stereo not drawn) [Benproperine phosphate], 0%. As to `NC(CO)C(=O)NNCc1ccc(O)c(O)c1O` (stereo not drawn) [Benserazide HCl], the inhibition at 100 µM is 7.42%. On to `O=C(O)c1ccc(NC(=O)[C@H](Cc2ccc(O)cc2)NC(=O)c2ccccc2)cc1` [Bentiromide], for which the inhibition at 100 µM came out at 3.94%. On to `CCc1oc2ccccc2c1C(=O)c1cc(Br)c(O)c(Br)c1` [Benzbromarone], for which the inhibition at 100 µM was 6.57%. Take `O=C(Cn1ccnc1[N+](=O)[O-])NCc1ccccc1` [Benznidazole]: the inhibition at 100 µM came out at 0%. For the compound `CCOC(=O)c1ccc(N)cc1` [Benzocaine hydrochloride], the inhibition at 100 µM came out at 0%. `NS(=O)(=O)c1cc2c(cc1Cl)N=C(CSCc1ccccc1)NS2(=O)=O` [Benzthiazide]: the inhibition at 100 µM is 0%. With `CN(C)CCCOc1nn(Cc2ccccc2)c2ccccc12` [Benzydamine HCl], the inhibition at 100 µM is 4.5%. Consider `OCc1ccccc1` [Benzyl alcohol], for which the inhibition at 100 µM came out at 0%.

`O=C(OCc1ccccc1)c1ccccc1` [Benzyl benzoate]: the inhibition at 100 µM was determined as 0%. On the same count and under the same terms, in the case of `O=C(O)CCCN1CCC(O[C@@H](c2ccc(Cl)cc2)c2ccccn2)CC1` [Bepotastine Besilate] it was 15%. On the same count and under the same terms, as for `N[C@@H]1CCCCN(c2c(F)cc3c(=O)c(C(=O)O)cn(C4CC4)c3c2Cl)C1` [Besifloxacin HCl], the figure is 0%; as for `CC1=C(/C=C/C(C)=C/C=C/C(C)=C/C=C/C=C(C)/C=C/C=C(C)/C=C/C2=C(C)CCCC2(C)C)C(C)(C)CCC1` [Beta Carotene], 7.3%; as for `CNCCc1ccccn1` [Betahistine mesylate], 0%.

Take `C[N+](C)(C)CC(=O)O` [Betaine]: the inhibition at 100 µM worked out at 0%.

In the case of `CCC(=O)OCC(=O)[C@@]1(OC(=O)CC)[C@@H](C)C[C@H]2[C@@H]3CCC4=CC(=O)C=C[C@]4(C)[C@@]3(F)[C@@H](O)C[C@@]21C` [Betamethasone Dipropionate], the inhibition at 100 µM was 5.5%. On the same count and under the same terms, as for `CCCCC(=O)O[C@]1(C(=O)CO)[C@@H](C)C[C@H]2[C@@H]3CCC4=CC(=O)C=C[C@]4(C)[C@@]3(F)[C@@H](O)C[C@@]21C` [Betamethasone Valerate], the figure is 0%.

For `O=C(O)CCNC(=O)c1ccccc1` [Betamipron], the inhibition at 100 µM was 7.69%. For the compound `CC(C[N+](C)(C)C)OC(N)=O` (stereo not drawn) [Bethanechol chloride], the inhibition at 100 µM worked out at 0%. Take `COc1ccc(CCNCC(O)COc2cccc(C)c2)cc1OC` (stereo not drawn) [Bevantolol hydrochloride]: the inhibition at 100 µM is 17.4%. On the same count and under the same terms, as for `C=C(c1ccc(C(=O)O)cc1)c1cc2c(cc1C)C(C)(C)CCC2(C)C` [Bexarotene], the figure is 0%; as for `CC(C)(Oc1ccc(CCNC(=O)c2ccc(Cl)cc2)cc1)C(=O)O` [Bezafibrate], 9.85%; as for `C[C@@H](O)[C@H]1C(=O)N2C(C(=O)[O-])=C(SC3Cn4cnc[n+]4C3)[C@H](C)[C@H]12` (stereo partly drawn) [Biapenem], 5.82%. On the same count and under the same terms, in the case of `CC(O)(CS(=O)(=O)c1ccc(F)cc1)C(=O)Nc1ccc(C#N)c(C(F)(F)F)c1` (stereo not drawn) [Bicalutamide] it was 0%. Take `c1ccc(-c2ccc(C(c3ccccc3)n3ccnc3)cc2)cc1` (stereo not drawn) [Bifonazole]: the inhibition at 100 µM was found to be 37%. Turning to `CCOCCn1c(C2CCN(CCc3ccc(C(C)(C)C(=O)O)cc3)CC2)nc2ccccc21` [Bilastine], the inhibition at 100 µM is 0%. On to `CCNC(=O)CCC/C=C\C[C@@H]1[C@@H](/C=C/[C@@H](O)CCc2ccccc2)[C@H](O)C[C@@H]1O` [Bimatoprost], for which the inhibition at 100 µM was 0%. With `Cn1cnc2c(F)c(Nc3ccc(Br)cc3F)c(C(=O)NOCCO)cc21` [Binimetinib (MEK162, ARRY-162, ARRY-438162)], the inhibition at 100 µM turned out to be 24%. The same measure, in the same setting: as for `O=C(O)CCCC[C@@H]1SC[C@@H]2NC(=O)N[C@@H]21` [Biotin (Vitamin B7)], the figure is 0%; as for `CC[C@H](NC(=O)[C@H](C)NC)C(=O)N1C[C@@H](O)C[C@H]1Cc1c(-c2[nH]c3cc(F)ccc3c2C[C@@H]2C[C@H](O)CN2C(=O)[C@H](CC)NC(=O)[C@H](C)NC)[nH]c2cc(F)ccc12` [Birinapant], 3.17%; as for `CC(=O)Oc1ccc(C(c2ccc(OC(C)=O)cc2)c2ccccn2)cc1` [Bisacodyl], 0%.

For `CC(C)NCC(O)COc1ccc(COCCOC(C)C)cc1` (stereo not drawn) [Bisoprolol fumarate], the inhibition at 100 µM was 0%.

Consider `Oc1c(Cl)cc(Cl)cc1Sc1cc(Cl)cc(Cl)c1O` [Bithionol], for which the inhibition at 100 µM was 0%. With `C[C@H](Oc1ccc(S(C)(=O)=O)cc1C(=O)N1CCN(c2ncc(C(F)(F)F)cc2F)CC1)C(F)(F)F` [Bitopertin], the inhibition at 100 µM worked out at 0%.

Take `Cc1c(N)nc([C@H](CC(N)=O)NC[C@H](N)C(N)=O)nc1C(=O)N[C@H](C(=O)N[C@H](C)[C@@H](O)[C@H](C)C(=O)N[C@H](C(=O)NCCc1nc(-c2nc(C(=O)NCCC[S+](C)C)cs2)cs1)[C@@H](C)O)[C@@H](O[C@@H]1O[C@@H](CO)[C@@H](O)[C@H](O)[C@@H]1O[C@H]1O[C@H](CO)[C@@H](O)[C@H](OC(N)=O)[C@@H]1O)c1cnc[nH]1` [Bleomycin sulfate]: the inhibition at 100 µM turned out to be 0%.

Values taken from doi:10.1101/2021.10.07.463234v2 (biorxiv, 2021).
